# Measured values taken from patent US11053204B2, “Pyrimidinyloxy benzene derivatives as herbicides” (FMC Corporation, priority 2015, dated 2021).
# How the values were obtained:
# Format in all cases: in vivo
# [1] = system: windgrass (Apera spica-venti); assay: Test C preemergence, plant response rating
# [2] = system: nightshade (eastern black nightshade, Solanum ptycanthum); assay: Test C preemergence, plant response rating
# [3] = system: barnyardgrass (Echinochloa crus-galli); assay: Test C preemergence, plant response rating; conditions: Preemergence
# [4] = system: field violet (Viola arvensis); assay: Test C postemergence, plant response rating; conditions: for Field Violet plant response rating: scale 0 to 100 (0 no effect, 100 complete control)
# How it was run: (§1)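 Pre-emergence: seeds sown in loam soil–sand blend or silt loam and sprayed with test chemicals in a non-phytotoxic solvent mixture with surfactant. Post-emergence: plants 2 to 18 cm (1- to 4-leaf stage) in peat-based potting medium, same formulation. Greenhouse 13 to 15 d; visual rating 0 (no effect) to 100 (complete control) versus controls.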
# [5] = system: speedwell (bird's-eye speedwell, Veronica persica); assay: Test C postemergence, plant response rating; conditions: for Speedwell plant response rating: scale 0 to 100 (0 no effect, 100 complete control)
# How it was run: as §1
# [6] = system: pigweed, palmer (palmer pigweed, Amaranthus palmeri); assay: Test C postemergence, plant response rating; conditions: for Pigweed, Palmer plant response rating: scale 0 to 100 (0 no effect, 100 complete control)
# How it was run: as §1
# [7] = system: buckwheat, wild (wild buckwheat, Polygonum convolvulus); assay: Test C postemergence, plant response rating; conditions: for Buckwheat, Wild plant response rating: scale 0 to 100 (0 no effect, 100 complete control)
# How it was run: as §1
# [8] = system: windgrass (Apera spica-venti); assay: Test C postemergence, plant response rating
# How it was run: as §1
# [9] = system: surinam grass (Brachiaria decumbens); assay: Test C postemergence, plant response rating
# How it was run: as §1
# [10] = system: johnsongrass (Sorghum halepense); assay: Test C postemergence, plant response rating; conditions: for Johnsongrass plant response rating: scale 0 to 100 (0 no effect, 100 complete control)
# How it was run: as §1
# [11] = system: nightshade (eastern black nightshade, Solanum ptycanthum); assay: Test C postemergence, plant response rating; conditions: for Nightshade plant response rating: scale 0 to 100 (0 no effect, 100 complete control)
# How it was run: as §1
# [12] = system: wild poinsettia (Euphorbia heterophylla); assay: Test C postemergence, plant response rating; conditions: for Poinsettia, Wild plant response rating: scale 0 to 100 (0 no effect, 100 complete control)
# How it was run: as §1
# [13] = system: geranium, cutleaf (cutleaf geranium, Geranium dissectum); assay: Test C postemergence, plant response rating; conditions: for Geranium, Cutleaf plant response rating: scale 0 to 100 (0 no effect, 100 complete control)
# How it was run: as §1
# [14] = system: Canada thistle (Cirsium arvense); assay: Test C postemergence, plant response rating; conditions: for Canada Thistle plant response rating: scale 0 to 100 (0 no effect, 100 complete control)
# How it was run: as §1
# [15] = system: field poppy (Papaver rhoeas); assay: Test C postemergence, plant response rating; conditions: for Field Poppy plant response rating: scale 0 to 100 (0 no effect, 100 complete control)
# How it was run: as §1
# [16] = system: wild poinsettia (Euphorbia heterophylla); assay: Test C preemergence, plant response rating
# [17] = system: johnsongrass (Sorghum halepense); assay: Test C preemergence, plant response rating
# [18] = system: galium (catchweed bedstraw, Galium aparine); assay: Test C preemergence, plant response rating
# [19] = system: oat, wild (wild oat Avena fatua); assay: Test C preemergence, plant response rating
# [20] = 125 g ai/ha, scale 0 to 100 (0 no effect, 100 complete control)
smiles,measurement,setting,value
FC(F)(F)CCCc1c(Br)cccc1Oc1ncc(Cl)cn1 [Compound 89],"Plant response rating, Windgrass","[1]; 31 g ai/ha, scale 0 to 100",50
same,"Plant response rating, Windgrass","[1]; 62 g ai/ha, scale 0 to 100",65
same,"Plant response rating, Windgrass","[1]; 125 g ai/ha, scale of 0 to 100",100
same,"Plant response rating, Nightshade","[2]; 31 g ai/ha, scale 0 to 100",75
same,"Plant response rating, Nightshade","[2]; 62 g ai/ha, scale 0 to 100",65
same,"Plant response rating, Nightshade","[2]; 125 g ai/ha, scale of 0 to 100",85
same,"Plant response rating, Barnyardgrass","[3]; 125 g ai/ha, scale of 0 to 100",100
same,"Plant response rating, Barnyardgrass","[3]; 16 g ai/ha, scale 0 to 100",5
same,"Plant response rating, Barnyardgrass","[3]; 31 g ai/ha, scale 0 to 100",35
same,"Plant response rating, Barnyardgrass","[3]; 62 g ai/ha, scale 0 to 100",90
same,"Plant response rating, Field Violet","[4]; 16 g ai/ha, scale of 0 to 100",100
same,"Plant response rating, Field Violet","[4]; 31 g ai/ha, scale 0 to 100",100
same,Field Violet plant response rating,[4]; 62 g ai/ha,100
same,Field Violet plant response rating,[4]; 125 g ai/ha,100
same,"Plant response rating, Speedwell","[5]; 16 g ai/ha, scale of 0 to 100",95
same,"Plant response rating, Speedwell","[5]; 31 g ai/ha, scale 0 to 100",100
same,Speedwell plant response rating,[5]; 62 g ai/ha,100
same,Speedwell plant response rating,[5]; 125 g ai/ha,100
same,"Plant response rating, Pigweed, Palmer","[6]; 16 g ai/ha, scale of 0 to 100",55
same,"Plant response rating, Pigweed, Palmer","[6]; 31 g ai/ha, scale 0 to 100",75
same,"Pigweed, Palmer plant response rating",[6]; 62 g ai/ha,80
same,"Pigweed, Palmer plant response rating",[6]; 125 g ai/ha,85
same,"Plant response rating, Buckwheat, Wild","[7]; 16 g ai/ha, scale of 0 to 100",70
same,"Plant response rating, Buckwheat, Wild","[7]; 31 g ai/ha, scale 0 to 100",75
same,"Buckwheat, Wild plant response rating",[7]; 62 g ai/ha,75
same,"Buckwheat, Wild plant response rating",[7]; 125 g ai/ha,85
same,"Plant response rating, Windgrass","[8]; 16 g ai/ha, scale of 0 to 100",10
same,"Plant response rating, Windgrass","[8]; 31 g ai/ha, scale 0 to 100",10
same,Windgrass plant response rating,[8]; [20],35
same,"Plant response rating, Surinam Grass","[9]; 16 g ai/ha, scale of 0 to 100",10
same,"Plant response rating, Surinam Grass","[9]; 31 g ai/ha, scale 0 to 100",10
same,Surinam Grass plant response rating,[9]; [20],20
same,"Plant response rating, Johnsongrass","[10]; 16 g ai/ha, scale of 0 to 100",5
same,"Plant response rating, Johnsongrass","[10]; 31 g ai/ha, scale 0 to 100",10
same,Johnsongrass plant response rating,[10]; 62 g ai/ha,10
same,Johnsongrass plant response rating,[10]; 125 g ai/ha,85
same,"Plant response rating, Nightshade","[11]; 16 g ai/ha, scale of 0 to 100",75
same,"Plant response rating, Nightshade","[11]; 31 g ai/ha, scale 0 to 100",90
same,Nightshade plant response rating,[11]; 62 g ai/ha,95
same,Nightshade plant response rating,[11]; 125 g ai/ha,95
same,"Plant response rating, Poinsettia, Wild","[12]; 16 g ai/ha, scale of 0 to 100",55
same,"Plant response rating, Poinsettia, Wild","[12]; 31 g ai/ha, scale 0 to 100",60
same,"Poinsettia, Wild plant response rating",[12]; 62 g ai/ha,80
same,"Poinsettia, Wild plant response rating",[12]; 125 g ai/ha,90
same,"Plant response rating, Geranium, Cutleaf","[13]; 16 g ai/ha, scale of 0 to 100",35
same,"Plant response rating, Geranium, Cutleaf","[13]; 31 g ai/ha, scale 0 to 100",35
same,"Geranium, Cutleaf plant response rating",[13]; 62 g ai/ha,50
same,"Geranium, Cutleaf plant response rating",[13]; 125 g ai/ha,55
same,"Plant response rating, Canada Thistle","[14]; 16 g ai/ha, scale of 0 to 100",80
same,"Plant response rating, Canada Thistle","[14]; 31 g ai/ha, scale 0 to 100",80
same,Canada Thistle plant response rating,[14]; 62 g ai/ha,85
same,Canada Thistle plant response rating,[14]; 125 g ai/ha,85
same,"Plant response rating, Field Poppy","[15]; 16 g ai/ha, scale of 0 to 100",90
same,"Plant response rating, Field Poppy","[15]; 31 g ai/ha, scale 0 to 100",95
same,Field Poppy plant response rating,[15]; 62 g ai/ha,100
same,Field Poppy plant response rating,[15]; 125 g ai/ha,100
same,"Plant response rating, Poinsettia, Wild","[16]; 31 g ai/ha, scale 0 to 100",0
same,"Plant response rating, Poinsettia, Wild","[16]; 62 g ai/ha, scale 0 to 100",20
same,"Plant response rating, Poinsettia, Wild","[16]; 125 g ai/ha, scale of 0 to 100",40
same,"Plant response rating, Johnsongrass","[17]; 31 g ai/ha, scale 0 to 100",40
same,"Plant response rating, Johnsongrass","[17]; 62 g ai/ha, scale 0 to 100",30
same,"Plant response rating, Johnsongrass","[17]; 125 g ai/ha, scale of 0 to 100",60
same,"Plant response rating, Galium","[18]; 31 g ai/ha, scale 0 to 100",0
same,"Plant response rating, Galium","[18]; 62 g ai/ha, scale 0 to 100",0
same,"Plant response rating, Galium","[18]; 125 g ai/ha, scale of 0 to 100",0
same,"Plant response rating, Oat, Wild","[19]; 31 g ai/ha, scale 0 to 100",10
same,"Plant response rating, Oat, Wild","[19]; 62 g ai/ha, scale 0 to 100",30
same,"Plant response rating, Oat, Wild","[19]; 125 g ai/ha, scale of 0 to 100",10
